Measurements published in patent US20250092065A1, “2-(INDAZOL-5-YL)-6-(PIPERIDIN-4-YL)-1,7-NAPHTHYRIDINE DERIVATIVES AND RELATED COMPOUNDS AS MODULATORS FOR SPLICING NUCLEIC ACIDS AND FOR THE TREATMENT OF PROLIFERATIVE DISEASES” (REMIX THERAPEUTICS INC., priority 2022, published 2025).
Where two headings read alike, the source gives them in different places.

Legend:
[1] = system: HTT mRNA; assay: RT-qPCR splicing assay, HTT mRNA canonical (CJ) and alternative (AJ) junction; format: cell-based, human; conditions: Homo sapiens; for AC50: HTT alternative junction mRNA, read-out: HTT AJ (increase in AJ mRNA, AC50)
Method: (§1) Compounds described herein were used to modulate RNA transcript abundance in cells. The expression of a target mRNA was measured by detecting the formation of an exon-exon junction in the canonical transcript (CJ). A compound mediated exon-inclusion event was detected by observing an increase in formation of a new junction with an alternative exon (AJ). Real-time qPCR assays were used to detect these splicing switches and interrogate the potency of various compounds towards different target genes. A high-throughput real time quantitative PCR (RT-qPCR) assay was developed to measure these two isoforms of the mRNA (CJ and AJ) for exemplary genes, such as HTT, SMN2, and MYB, together with a control housekeeping gene, GAPDH or GUSB or PPIA, used for normalization. Briefly, the A673 or K562 cell line was treated with various compounds described herein (e.g., compounds of Formula (I)). After treatment, the levels of the HTT, MYB, or SMN2 mRNA targets were determined from each sample of cell lysate by cDNA synthesis followed by qPCR.
(§2) The A673 cell line was cultured in DMEM with 10% FBS. Cells were diluted with full growth media and plated in a 96-well plate (15,000 cells in 100 ul media per well). The plate was incubated at 37° C. with 5% CO2 for 24 hours to allow cells to adhere. An 11-point 3-fold serial dilution of the compounds was made in DMSO then diluted in media in an intermediate plate. Compounds were transferred from the intermediate plate to the cell plate with the top dose at a final concentration of 10 uM in the well. Final DMSO concentration was kept at or below 0.25%. The cell plate was returned to the incubator at 37° C. with 5% CO2 for an additional 24 hours.
(§3) The K562 cell line was cultured in IMDM with 10% FBS. For K562, cells were diluted with full growth media and plated in either a 96-well plate (50,000 cells in 50 uL media per well) or a 384-well plate (8,000-40,000 cells in 45 uL media per well). An 11-point 3-fold serial dilution of the compounds were made in DMSO then diluted in media in an intermediate plate. Compound was transferred from the intermediate plate to the cell plate with the top dose at a final concentration of 10 uM in the well. Final DMSO concentration was kept at or below 0.25%. Final volume was 100 uL for 96-well plate and 50 uL for 384-well plate. The cell plate was then placed in an incubator at 37° C. with 5% CO2 for 24 hours.
(§4) The cells were then gently washed with 50 uL-100 uL cold PBS before proceeding to addition of lysis buffer. 30 uL-50 μL of room temperature lysis buffer with DNAse I (and optionally RNAsin) was added to each well. Cells were shaken/mixed thoroughly at room temperature for 5-10 minutes for lysis to take place and then 3 uL-5 μL of room temperature stop solution was added and wells were shaken/mixed again. After 2-5 minutes, the cell lysate plate was transferred to ice for RT-qPCR reaction setup. The lysates could also be frozen at −80° C. for later use.
(§5) In some cases, a direct lysis buffer was used. An appropriate volume of 3× lysis buffer (10 mM Tris, 150 mM NaCl, 1.5%-2.5% Igepal and 0.1-1 U/uL RNAsin, pH 7.4) was directly added to either K562 or A673 cells in media and mixed by pipetting 3 times. The plates were then incubated at room temperature with shaking/rocking for 20-50 minutes to allow for lysis to take place. After this time, the cell lysate plate was transferred to ice to set up for the RT-qPCR reactions. The lysates could also be frozen at −80° C. for later use.
(§6) To set up 10 uL RT-qPCR reactions, cell lysates were transferred to 384-well qPCR plates containing the master mix according to the table below. The plates were sealed, gently vortexed, and spun down before the run. The volumes were adjusted accordingly in some instances where the reaction was carried in 20 μL. The table below summarizes the components of the RT-qPCR reactions:
(§7) The RT-qPCR reaction was performed using a QuantStudio (ThermoFisher) under the following fast cycling conditions. […]

[2] = system: MYB mRNA; assay: RT-qPCR splicing assay, MYB mRNA canonical (CJ) and alternative (AJ) junction; format: cell-based, human; conditions: Homo sapiens; for AC50: MYB alternative junction mRNA, read-out: MYB AJ (increase in AJ mRNA, AC50)
Method: as §1, §2, §3, §4, §5, §6, §7

[3] = system: SMN2 mRNA; assay: RT-qPCR splicing assay, SMN2 mRNA; format: cell-based, human; conditions: Homo sapiens, canonical junction qPCR panel, Table 4; read-out: SMN2 IC50 (decrease in CJ mRNA levels)
Method: as §1, §2, §3, §4, §5, §6, §7

[4] = system: MYB; assay: HiBiT protein abundance assay, MYB (K562 HiBiT knock-in); format: cell-based, human; conditions: HiBiT knock-in K562 cells, 24 hours, top dose 10 μM
Method: (§8) Compounds described herein were used to screen for effects on quantitative protein abundance using a HiBit assay system (Promega). Quantitative protein abundance was determined by measuring the protein levels of HiBit-tagged protein targets expressed in cell culture via luminescence using the Nano-Glo HiBiT Lytic Detection System, which uses a split complementation assay format to reconstitute NanoBiT enzyme to generate a luminescent signal. A protein abundance assay was developed such that endogenous protein targets could be modified with the HiBiT peptide tag and their abundance could be assessed after compound treatment. Briefly, K562 cell lines containing a HiBiT-modification were treated with various compounds described herein (e.g., compounds of Formulas (I), or (II)). After treatment for 24 hours, the protein abundance of a specific target was determined by measuring luminescence.
(§9) Cells were maintained in IMIDM with 10% FBS. Before the assay, cells were diluted with […] growth media (IMIDM+[…] media) and were seeded in a 384-well plate at a density of 10000 cells/well (for each cell line listed in Table 6). Each compound was prepared as a 10-point 3-fold serial dilution in DMSO with the top dose at a final concentration of 10 μM in the well. Unmodified K562 cells were added at the previously specified density with DMSO to serve as an assay baseline and positive control (PC) and DMSO only with the respective modified cell lines was added to the negative control (NC) columns. Final DMSO concentration was kept at or below 0.25%. Treated cell plates were placed in an incubator at 37° C. with […] for 24 hours. After 24 hours, 25 μL of Complete HiBit Lytic reagent was added to each well at room temperature (e.g. one plate requiring 10 mL Lytic Buffer, 100 μL LgBiT Protein, 200 μL Lytic Substrate), shaken for 5 minutes at 600 RPM, then left to sit for 10 minutes for signal to stabilize before reading on a Spark Cyto plate reader (Tecan) with a 500 ms measurement time.
(§10) To determine compound effects on protein abundance of each target in Table 6, the percent response for each respective cell line was calculated at each compound concentration as follows:
(§11) % response=100*(S−PC)(NC−PC)
(§12) For the normalized response at each concentration, a four-parameter logistical regression was fit to the data and the response was interpolated at the […] to determine a concentration for protein abundance at 50% (IC50) the untreated control.

[5] = system: HTT; assay: HiBiT protein abundance assay, HTT (K562 HiBiT knock-in); format: cell-based, human; conditions: HiBiT knock-in K562 cells, 24 hours, top dose 10 μM
Method: as §8, §9, §10, §11, §12

[6] = system: Target C; assay: HiBiT protein abundance assay, Target C (K562 HiBiT knock-in); format: cell-based, human; conditions: HiBiT knock-in K562 cells, 24 hours, top dose 10 μM
Method: as §9, §10, §11, §12

[7] = system: K562 cells; assay: Cell Titer Glo 2.0 cell viability (toxicity) assay, K562; conditions: 500 cells/well, 72 hours
[8] = HTT canonical junction mRNA, RT-qPCR, read-out: HTT CJ (decrease in CJ mRNA levels, IC50)
[9] = canonical junction qPCR panel, Table 4, read-out: HTT IC50 (decrease in CJ mRNA levels)
[10] = MYB canonical junction mRNA, RT-qPCR, read-out: MYB CJ (decrease in CJ mRNA levels, IC50)
[11] = canonical junction qPCR panel, Table 4, read-out: MYB IC50 (decrease in CJ mRNA levels)

Cc1nc2c(F)c(O)c(-c3ccc4nc(N5CC[C@@H](NC(C)(C)C)C5)ccc4n3)cc2o1 (single isomer, unassigned) [Compound 256]
< 100 nM: AC50 ([1]; RT-qPCR) | IC50 [1, 8] | IC50 [1, 9] | AC50 ([2]; RT-qPCR) | IC50 [2, 10] | IC50 [2, 11] | IC50 [3] | IC50 [4] | IC50 [5] | IC50 [6]
A (A represents <100 nM): Effect of Exemplary Compounds on Cell Viability, K562 [7]

Cn1cc2cc(-c3ccc4nc(C5CCNCC5)ccc4n3)c(O)cc2n1 [Compound 100]
1000 to 10000 nM: AC50 ([2]; RT-qPCR)
< 100 nM: IC50 [1, 8] | IC50 [1, 9] | IC50 [2, 10] | IC50 [2, 11] | IC50 [3] | IC50 [4] | IC50 [5] | IC50 [6]
100 to 1000 nM: AC50 ([1]; RT-qPCR)
B (B represents 100-1000 nM): Effect of Exemplary Compounds on Cell Viability, K562 [7]

Cc1c(O)c(-c2ccc3nc(C4CCNCC4)ccc3n2)cc2cn(C)nc12 [Compound 101]
A (A represents <100 nM): Effect of Exemplary Compounds on Cell Viability, K562 [7]
< 100 nM: AC50 ([1]; RT-qPCR) | IC50 [1, 8] | IC50 [1, 9] | AC50 ([2]; RT-qPCR) | IC50 [2, 10] | IC50 [2, 11] | IC50 [3] | IC50 [4] | IC50 [5] | IC50 [6]

Cn1cc2cc(-c3ccc4nc(C5CCNCC5)ccc4n3)c(O)c(F)c2n1 [Compound 102]
A (A represents <100 nM): Effect of Exemplary Compounds on Cell Viability, K562 [7]
< 100 nM: AC50 ([1]; RT-qPCR) | IC50 [1, 8] | IC50 [1, 9] | AC50 ([2]; RT-qPCR) | IC50 [2, 10] | IC50 [2, 11] | IC50 [3] | IC50 [4] | IC50 [5] | IC50 [6]

Cn1cc2c(O)c(-c3cc4ccc(C5CCNCC5)nc4cn3)ccc2n1 [Compound 106]
1000 to 10000 nM: AC50 ([1]; RT-qPCR) | IC50 [1, 8] | IC50 [1, 9] | IC50 [2, 10] | IC50 [2, 11] | IC50 [4] | IC50 [5] | IC50 [6]
B (B represents 100-1000 nM): Effect of Exemplary Compounds on Cell Viability, K562 [7]
100 to 1000 nM: AC50 ([2]; RT-qPCR) | IC50 [3]

Cn1cc2cc(-c3ncc4nc(C5CCNCC5)ccc4n3)c(O)cc2n1 [Compound 107]
< 100 nM: IC50 [3]
B (B represents 100-1000 nM): Effect of Exemplary Compounds on Cell Viability, K562 [7]
100 to 1000 nM: AC50 ([1]; RT-qPCR) | IC50 [1, 8] | IC50 [1, 9] | AC50 ([2]; RT-qPCR) | IC50 [2, 10] | IC50 [2, 11] | IC50 [4] | IC50 [5] | IC50 [6]

CN1CCC(N(C)c2ccc3nc(-c4cc5cn(C)nc5cc4O)ccc3n2)CC1 [Compound 126]
100 to 1000 nM: AC50 ([1]; RT-qPCR) | IC50 [1, 8] | IC50 [1, 9] | AC50 ([2]; RT-qPCR) | IC50 [2, 10] | IC50 [2, 11] | IC50 [4] | IC50 [5] | IC50 [6]
< 100 nM: IC50 [3]

Cn1cc2cc(-c3ccc4nc(N5C[C@H]6CC[C@@H](C5)N6)ccc4n3)c(O)cc2n1 [Compound 135]
< 100 nM: IC50 [3]
1000 to 10000 nM: AC50 ([1]; RT-qPCR) | IC50 [1, 8] | IC50 [1, 9] | IC50 [5] | IC50 [6]
100 to 1000 nM: AC50 ([2]; RT-qPCR) | IC50 [2, 10] | IC50 [2, 11] | IC50 [4]

Cc1cn2cc(-c3ccc4nc(C5CCNCC5)ccc4n3)c(O)c(C)c2n1 [Compound 151]
100 to 1000 nM: AC50 ([1]; RT-qPCR) | IC50 [1, 8] | IC50 [1, 9] | AC50 ([2]; RT-qPCR) | IC50 [2, 10] | IC50 [2, 11] | IC50 [3] | IC50 [4] | IC50 [5] | IC50 [6]
